Data taken from PubChem BioAssay (NCI).
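Grown in 96-well plates, cells were treated for 48 hours with each compound at five concentrations. Insufficient inhibition: endpoint recorded as highest concentration tested. The concentration for 50% growth inhibition is given as GI50. TGI is the concentration that stops growth completely.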

How the values were obtained:
Assay in all cases: inhibition of tumour cell growth, NCI panel, 48 h
MDA-MB-231 breast = system: MDA-MB-231 breast
OVCAR-3 ovarian = system: OVCAR-3 ovarian
T-47D breast = system: T-47D breast
SN12C renal = system: SN12C renal
KM12 colon = system: KM12 colon
A549 NSCLC = system: A549 NSCLC
LOX IMVI melanoma = system: LOX IMVI melanoma
SW-620 colon = system: SW-620 colon
HCT-116 colon = system: HCT-116 colon
U251 CNS = system: U251 CNS
A498 renal = system: A498 renal
PC-3 prostate = system: PC-3 prostate
CAKI-1 renal = system: CAKI-1 renal
BT-549 breast = system: BT-549 breast
NCI/ADR-RES ovarian = system: NCI/ADR-RES ovarian
NCI-H23 lung = system: NCI-H23 lung
SF-268 CNS = system: SF-268 CNS
HOP-62 NSCLC = system: HOP-62 NSCLC
M14 melanoma = system: M14 melanoma
IGROV1 ovarian = system: IGROV1 ovarian
OVCAR-4 ovarian = system: OVCAR-4 ovarian
NCI-H522 lung = system: NCI-H522 lung
SK-MEL-5 melanoma = system: SK-MEL-5 melanoma
HCC-2998 colon = system: HCC-2998 colon
SNB-19 CNS = system: SNB-19 CNS
MCF7 breast = system: MCF7 breast

In the case of O=c1[nH]cnc2c(C3NC(CO)C(O)C3O)c[nH]c12 (configuration not stated), the GI50 (MDA-MB-231 breast) is reported as over 100 µM, the TGI (MDA-MB-231 breast) is reported as over 100 µM and the GI50 (OVCAR-3 ovarian) is reported as over 100 µM. For the same compound, the TGI (OVCAR-3 ovarian) was over 100 µM, the GI50 (T-47D breast) was over 100 µM and the TGI (T-47D breast) was over 100 µM. The GI50 (SN12C renal) was over 100 µM, the TGI (SN12C renal) was over 100 µM and the GI50 (KM12 colon) was over 100 µM. For the same compound, the TGI (KM12 colon) was over 100 µM, the GI50 (A549 NSCLC) was over 100 µM and the TGI (A549 NSCLC) was over 100 µM. The GI50 (LOX IMVI melanoma) was over 100 µM, the TGI (LOX IMVI melanoma) was over 100 µM and the GI50 (SW-620 colon) was over 100 µM. It also gave a TGI (SW-620 colon) of over 100 µM, a GI50 (HCT-116 colon) of over 100 µM and a TGI (HCT-116 colon) of over 100 µM. For the same compound, the GI50 (U251 CNS) was over 100 µM, the TGI (U251 CNS) was over 100 µM and the GI50 (A498 renal) was over 100 µM. It also gave a TGI (A498 renal) of over 100 µM, a GI50 (PC-3 prostate) of over 100 µM and a TGI (PC-3 prostate) of over 100 µM. The GI50 (CAKI-1 renal) was over 100 µM, the TGI (CAKI-1 renal) was over 100 µM and the GI50 (BT-549 breast) was over 100 µM. It also gave a TGI (BT-549 breast) of over 100 µM, a GI50 (NCI/ADR-RES ovarian) of over 100 µM and a TGI (NCI/ADR-RES ovarian) of over 100 µM. It also gave a GI50 (NCI-H23 lung) of over 100 µM, a TGI (NCI-H23 lung) of over 100 µM and a GI50 (SF-268 CNS) of over 100 µM. The TGI (SF-268 CNS) was over 100 µM, the GI50 (HOP-62 NSCLC) was over 100 µM and the TGI (HOP-62 NSCLC) was over 100 µM. It also gave a GI50 (M14 melanoma) of over 100 µM, a TGI (M14 melanoma) of over 100 µM and a GI50 (IGROV1 ovarian) of over 100 µM. For the same compound, the TGI (IGROV1 ovarian) was over 100 µM, the GI50 (OVCAR-4 ovarian) was over 100 µM and the TGI (OVCAR-4 ovarian) was over 100 µM. For the same compound, the GI50 (NCI-H522 lung) was over 100 µM, the TGI (NCI-H522 lung) was over 100 µM and the GI50 (SK-MEL-5 melanoma) was over 100 µM. For the same compound, the TGI (SK-MEL-5 melanoma) was over 100 µM, the GI50 (HCC-2998 colon) was over 100 µM and the TGI (HCC-2998 colon) was over 100 µM. It also gave a GI50 (SNB-19 CNS) of over 100 µM, a TGI (SNB-19 CNS) of over 100 µM and a GI50 (MCF7 breast) of over 100 µM. The TGI (MCF7 breast) was over 100 µM.
